Target: T1, human A2B receptor (Homo sapiens, UniProt P29275)
T1 construct: host or cells: HEK293 cells stably expressing the receptor; membranes prepared from them
T1 sequence (P29275 1-332): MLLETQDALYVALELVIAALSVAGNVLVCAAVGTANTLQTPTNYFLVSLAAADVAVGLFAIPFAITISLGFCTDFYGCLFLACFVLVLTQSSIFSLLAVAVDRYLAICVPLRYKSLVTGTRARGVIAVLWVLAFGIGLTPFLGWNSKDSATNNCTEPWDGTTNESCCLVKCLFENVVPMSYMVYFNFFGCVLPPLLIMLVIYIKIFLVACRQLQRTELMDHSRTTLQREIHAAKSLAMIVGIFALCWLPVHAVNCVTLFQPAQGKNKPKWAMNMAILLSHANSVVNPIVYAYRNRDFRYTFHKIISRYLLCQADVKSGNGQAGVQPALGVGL
Test: Adenosine 2B receptor subtype competition radioligand binding assay
Conditions: [3H]-DPCPX competition, membranes from HEK293 cells expressing human A2B receptor
Procedure: A2B membranes were prepared from HEK293 cells stably expressing the human A2B receptor that were purchased from Euroscreen (ES-013-C). […] At the end of the incubation, samples were transferred to a GF/C filter plates (Milipore MAFCN0B50) pretreated for 15 min. with 250 μl of Tris-HCl 50 mM pH 6.5 (Buffer B). Samples were then filtered 4 times with 250 μl of buffer B. Samples were counted using 30 μl of Hisafe II (Perkin Elmer) in a Trilux counter.

SMILES	Ki
Nc1cnc(-c2ccncc2F)c(-c2cccc(F)c2)n1 [Example 3, 6-(3-Fluorophenyl)-5-(3-fluoropyridin-4-yl)pyrazin-2-amine]	4 nM
O=C(Nc1cnc(-c2ccncc2Cl)c(-c2ccccn2)n1)C1CC1 [Example 22, N-[5-(3-Chloropyridin-4-yl)-6-pyridin-2-ylpyrazin-2-yl]cyclopropanecarboxamide]	16 nM
COc1nc(-c2ccncc2)c(-c2ccco2)nc1N [Example 67, 6-(2-Furyl)-3-methoxy-5-pyridin-4-ylpyrazin-2-amine]	9 nM
O=c1[nH]c2nc(-c3ccncc3)c(-c3cccc(F)c3)nc2[nH]1 [Example 76, 5-(3-Fluorophenyl)-6-pyridin-4-yl-1,3-dihydro-2H-imidazo[4,5-b]pyrazin-2-one]	4 nM
COc1ccc(-c2nc(NC(=O)C3CC3)cnc2-c2ccncc2F)cn1 [Example 119, N-[5-(3-Fluoropyridin-4-yl)-6-(6-methoxypyridin-3-yl)pyrazin-2-yl]cyclopropane carboxamide]	3 nM
Fc1cnccc1-c1nc2cc(-c3cccnc3)[nH]c2nc1-c1cccnc1 [Example 149, 2-(3-Fluoropyridin-4-yl)-3,6-dipyridin-3-yl-5H-pyrrolo[2,3-b]pyrazine]	0.9 nM
